Data as given in US20240147927A1, “METHODS OF HIGH PRODUCTION OF POLYPHENOLS FROM RED LETTUCES AND USES THEREOF” (SignalChem Plantech Corporation, priority 2021, published 2024).

What was measured:
[1] = system: TNF-α production in PMA-differentiated THP1 macrophages; test: TNF-α production in LPS treated PMA-differentiated THP1 macrophages (ELISA); format: cell-based, human; conditions: 1.23, 3.7, 11.11, 33.33 and 100 μg/mL, then LPS 48 h
Description: (§1) Methods: […] THP1 monocytes were differentiated to macrophages using phorbol 12-myristate 13-acetate (PMA, Sigma, P1585). The […] The culture supernatant was collected from each well and replaced with 100 μl of fresh 1% FBS medium. […] 50 μl of cultured supernatant was used for measuring TNF-α and IL6 concentration. TNF-α was measured using human TNF-α DuoSet ELISA kit (R&D systems, DY210-05) and IL6 was determined using human IL6 DuoSet ELISA kit (R&D systems, DY206-05) according to the manufacturer's instructions. […] THP1 monocytes were differentiated to macrophages as previously described. […] Untreated cells were used as the control. After incubation, cell cultures were then stimulated with LPS for an additional 48 h (total volume of 200 μL per well). The culture supernatant was collected from each well and replaced with 100 μL of fresh 1% FBS medium. […] 50 μl of cultured supernatant was used for measuring TNF-α and IL6 concentration. TNF-α was measured using human TNF-α DuoSet ELISA kit and IL6 was determined using human IL6 DuoSet ELISA kit according to the manufacturer's instructions.

[2] = system: Jurkat cells; format: cell-based
[3] = system: MCF7 cells; format: cell-based
[4] = system: THP1 cells; format: cell-based
[5] = system: IL-6 production in PMA-differentiated THP1 macrophages; test: IL-6 production in LPS treated PMA-differentiated THP1 macrophages (ELISA); format: cell-based, human; conditions: 1.23, 3.7, 11.11, 33.33 and 100 μg/mL, then LPS 48 h
Description: as §1

[6] = system: nitric oxide (NO) production in PMA-differentiated THP1 macrophages; test: Nitric oxide (NO) production in LPS treated PMA-differentiated THP1 macrophages; format: cell-based, human; conditions: pre-treatment 2 h, then LPS 48 h
Description: Methods: […] Total nitrite was measured using nitric oxide colorimetric assay kit (BioVision, […]-200) according to the manufacturer's instructions. […] Untreated cells were used as the control. After incubation, cell cultures were then stimulated with LPS for an additional 48 h (total volume of 200 μl per well). The culture supernatant was collected from each well and replaced with 100 μl of fresh 1% FBS medium. […] 42.5 μL of cultured supernatant was used for measuring nitrite concentration. Total nitrite was measured using nitric oxide colorimetric assay kit according to the manufacturer's instructions.

SMILES | effect on secretion of TNF-α [1] | Jurkat, TC50 [2] | cytotoxicity towards MCF7 cell-line [3] | cytotoxicity towards THP1 cell-line [4] | effect on secretion of IL-6 [5] | NO, EC50 [6]
O=C(/C=C/c1ccc(O)c(O)c1)O[C@H]1[C@H](O)C[C@](O)(C(=O)O)C[C@H]1O [4-CQA, 4-O-caffeoylquinic acid] | minimal effects | 49.9 µg/mL | did not appear to be individually cytotoxic | did not appear to be individually cytotoxic | minimal effects | 71.9 µg/mL
O=C(C=Cc1ccc(O)c(O)c1)O[C@@H](C(=O)O)[C@@H](OC(=O)C=Cc1ccc(O)c(O)c1)C(=O)O [Chicoric acid, (2R,3R)-O-dicaffeoyltartaric acid] | minimal effects |  |  |  | minimal effects | 25.3 µg/mL
OC[C@H]1O[C@@H](Oc2cc3c(O)cc(O)cc3[o+]c2-c2ccc(O)c(O)c2)[C@H](O)[C@@H](O)[C@H]1O [Cyanidin 3-galactoside, cyanidin 3-galactoside] | minimal effects | 53.5 µg/mL | did not appear to be individually cytotoxic | did not appear to be individually cytotoxic | minimal effects | 98.4 µg/mL
O=C(/C=C/c1ccc(O)c(O)c1)O[C@@H]1C[C@](O)(C(=O)O)C[C@@H](O)[C@H]1O [Neochlorogenic acid, 3-O-caffeoylquinic acid] | minimal effects |  |  |  | minimal effects | 80.5 µg/mL
